Laboratory results reported in ChEMBL document CHEMBL1138425, “Beta-secretase (BACE-1) inhibitors: accounting for 10s loop flexibility using rigid active sites” (Bioorg Med Chem Lett, 2007).

Target: Beta-secretase 1 (Homo sapiens, UniProt P56817)
Assay: Inhibition of BACE1

Sequence of Beta-secretase 1 (P56817 whole entry): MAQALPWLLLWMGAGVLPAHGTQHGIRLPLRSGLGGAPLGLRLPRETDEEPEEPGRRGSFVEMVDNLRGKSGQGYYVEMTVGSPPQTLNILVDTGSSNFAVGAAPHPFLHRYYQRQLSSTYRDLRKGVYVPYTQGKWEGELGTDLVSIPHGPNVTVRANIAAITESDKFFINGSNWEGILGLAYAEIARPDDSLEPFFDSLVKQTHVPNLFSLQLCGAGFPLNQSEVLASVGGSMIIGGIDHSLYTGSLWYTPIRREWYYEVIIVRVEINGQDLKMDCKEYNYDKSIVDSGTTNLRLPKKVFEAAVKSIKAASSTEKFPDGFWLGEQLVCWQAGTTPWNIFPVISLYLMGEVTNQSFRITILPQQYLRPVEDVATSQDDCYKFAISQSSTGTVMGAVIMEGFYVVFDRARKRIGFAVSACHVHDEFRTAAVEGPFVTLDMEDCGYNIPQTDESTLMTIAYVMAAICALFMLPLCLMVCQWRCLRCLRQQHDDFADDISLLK

SMILES	Ki (read-out: Ki) [µM]	Ki (read-out: Log Ki (converted)) [µM]
CCCN(c1cc(/C=C\C2CC2C)cc(-c2nnc([C@](C)(N)Cc3ccccc3)o2)c1)S(C)(=O)=O (some centres undefined)	0.0519	0.0501
CC(C)C(=O)c1cc(-c2nnc([C@](C)(N)Cc3ccccc3)o2)cc(N(C)S(C)(=O)=O)c1	16.5	15.8
